Laboratory results from ChEMBL document CHEMBL1201862, “PubChem BioAssay data set” (2004).
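All cell lines were grown in 96-well plates and treated with compound for 48 hours. Here, GI50 denotes the concentration required for 50% inhibition of growth.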 Calls of active or inactive are those of the source. Rule as the data show it: active = GI50 up to about 1.1 µM and inactive = higher.

How the values were obtained:
Assay in all cases: growth of human tumour cells (NCI), 48 h
[1] = system: T47D
[2] = system: LXFL 529
[3] = system: DMS-273
[4] = system: M19-MEL
[5] = system: HOP-18
[6] = system: KM-20L2
[7] = system: XF498
[8] = system: DLD-1
[9] = system: RXF 631

| Compound | GI50 [1] | GI50 [2] | GI50 [4] | further results |
| --- | --- | --- | --- | --- |
| O=C(O)C1=NN(c2ccc(S(=O)(=O)O)cc2)C2(C1)SCC(=O)N2c1nc2ccccc2s1 (stereo not drawn) | > 100 µM (inactive) | – | – | – |
| O=C1NC(=O)C(C(c2ccc(Cl)cc2)C2C(=O)NC(=O)NC2=O)C(=O)N1.c1ccncc1 | > 100 µM (inactive) | – | – | – |
| O=C1CC(c2ccco2)C2(C(=O)NC(=O)NC2=O)C(c2ccco2)C1 (stereo not drawn) | > 75 µM (inactive) | – | – | – |
| COC(=O)[C@]12CCC(=O)N1[C@H](C(=O)O)Cc1c2[nH]c2ccccc12 | > 100 µM (inactive) | – | – | – |
| CN(C)c1ccc(/C=C/C(=O)c2cc(C(C)(C)C)c(O)c(C(C)(C)C)c2)cc1 | 4.06 µM (inactive) | – | – | – |
| COC(=N)C12C(N)=NC(OC)(OC)C1(C#N)C21C(=O)N(c2ccccc2)N=C1C (stereo not drawn) | > 100 µM (inactive) | – | – | – |
| CCOC(=O)C1=C(C)NC(=O)NC1c1ccc(OC)cc1OC (stereo not drawn) | – | > 100 µM (inactive) | > 100 µM (inactive) | GI50 [3]: > 100 µM (inactive); GI50 [5]: > 100 µM (inactive); GI50 [6]: > 100 µM (inactive); GI50 [7]: > 100 µM (inactive); GI50 [8]: > 100 µM (inactive) |
| CC1=C[C@H]2c3c([nH]c4ccccc34)C(c3c[nH]c4ccccc34)[C@H]2CC1 (stereo partly drawn) | – | 4.29 µM (inactive) | 10.3 µM (inactive) | GI50 [3]: 4.33 µM (inactive); GI50 [9]: 3.57 µM (inactive); GI50 [5]: 11.7 µM (inactive); GI50 [8]: 6.43 µM (inactive) |
| COc1cc(-c2oc(/C=N/c3ccccc3)c([N+](=O)[O-])c2-c2ccc(O)c(OC)c2)ccc1O | 38.9 µM (inactive) | – | – | – |
| COC(=O)c1c(O)ccc2c1c1cc3ccccc3cc1n2Cc1cc(OC)cc(OC)c1 | 3.06 µM (inactive) | – | – | – |
| O=C(O)/C=C\C(=O)Nc1ccccn1 | > 100 µM (inactive) | – | – | – |
| CCCc1c2c([nH]c(=O)c1C)C(=O)c1[nH]c(=O)c(C)c(CCC)c1C2=O | – | 63.2 µM (inactive) | 2.21 µM (inactive) | GI50 [5]: > 100 µM (inactive) |
| COc1cc(/C=C2\CCC(C)C3C2=NN(C(C)=O)C3c2cc(OC)c(OC)c(OC)c2)cc(OC)c1OC (stereo not drawn) | 9.86 µM (inactive) | – | – | – |
| O=C(O)/C=c1/c2ccccc2n2nc3ccccc3c12 | 55.5 µM (inactive) | – | – | – |
| COc1ccc2c(c1)CC1NC2Cc2ccccc21 (stereo not drawn) | – | > 100 µM (inactive) | > 100 µM (inactive) | GI50 [5]: > 100 µM (inactive); GI50 [6]: > 100 µM (inactive); GI50 [7]: > 100 µM (inactive); GI50 [8]: > 100 µM (inactive) |
| CCC1=CC2CN3Cn4c(c(COCc5c6n(c7ccccc57)CN5CC7C=C(CC)C5C6(C(=O)OC)C7)c5ccccc54)C(C(=O)OC)(C2)C13 | – | > 100 µM (inactive) | 47.2 µM (inactive) | GI50 [3]: > 100 µM (inactive); GI50 [6]: > 100 µM (inactive); GI50 [7]: > 100 µM (inactive); GI50 [8]: > 100 µM (inactive) |
| N=C(N)NNC(=O)CCCCCCCC(=O)NNC(=N)N | – | > 100 µM (inactive) | > 100 µM (inactive) | GI50 [3]: > 100 µM (inactive); GI50 [9]: > 100 µM (inactive); GI50 [6]: > 100 µM (inactive); GI50 [8]: > 100 µM (inactive) |

| Compound | GI50 [1] | GI50 [2] | GI50 [4] | further results |
| --- | --- | --- | --- | --- |
| COc1cccc(C(=O)O)c1Cc1cccc2ccccc12 | – | > 100 µM (inactive) | > 100 µM (inactive) | GI50 [3]: > 100 µM (inactive); GI50 [5]: > 100 µM (inactive); GI50 [6]: > 100 µM (inactive); GI50 [8]: > 100 µM (inactive) |
| Cc1c(C(=O)Nc2ccc(Cl)c(C(F)(F)F)c2)oc2cc(O)ccc2/c1=N\NC(N)=S | – | > 100 µM (inactive) | > 100 µM (inactive) | GI50 [3]: > 100 µM (inactive); GI50 [5]: > 100 µM (inactive); GI50 [6]: > 100 µM (inactive); GI50 [7]: > 100 µM (inactive); GI50 [8]: > 100 µM (inactive) |
| O=c1[nH]c2ccc(Cl)cc2o1 | > 100 µM (inactive) | – | – | – |
| Cc1ccccc1NC(=O)/C(C#N)=N\Nc1[nH]cnc1C(N)=O | 25.9 µM (inactive) | – | – | – |
| CC(Br)C(=O)Nc1ccc(C(=O)O)c(O)c1 (stereo not drawn) | > 100 µM (inactive) | – | – | – |
| O=C(/C=C/c1ccc[nH]1)c1ccccc1 | – | > 100 µM (inactive) | > 100 µM (inactive) | GI50 [3]: > 100 µM (inactive); GI50 [5]: 40.2 µM (inactive); GI50 [6]: > 100 µM (inactive); GI50 [8]: > 100 µM (inactive) |
| Cn1c(CO)ccc1-c1ccc(-c2ccc[se]2)[se]1 | 0.155 µM (active) | – | – | – |
| C#C[C@]1(O)CC[C@H]2[C@@H]3CCC4=C/C(=N/OC(=O)c5cccc6cc7ccccc7nc56)CC[C@@H]4[C@H]3CC[C@@]21CC | 33.8 µM (inactive) | – | – | – |
| C=C(C)CCC(O)[C@](C)(O)[C@H]1[C@H](O)C[C@@]2(C)[C@@H]3CCc4c(cc(OC5OC(CO)C(O)C(O)C5O)c(O)c4C)C3(C)C(=O)C[C@]12C (stereo partly drawn) | > 100 µM (inactive) | – | – | – |
| CC(O)C1(CNc2cc(Cl)nc(N)n2)CC(CCc2ccccc2)C1 (stereo not drawn) | 3.42 µM (inactive) | – | – | – |
| COc1nc(OC)c2c(=O)oc(-c3ccccc3)cc2n1 | – | > 100 µM (inactive) | > 100 µM (inactive) | GI50 [3]: > 100 µM (inactive); GI50 [6]: > 100 µM (inactive) |
| Brc1cccc(C2SCc3nc4ccccc4n32)c1 (stereo not drawn) | – | 20.6 µM (inactive) | 18.2 µM (inactive) | GI50 [8]: 12.9 µM (inactive) |
| N#C/C(=C/N1C(=O)/C(=C/c2ccc([N+](=O)[O-])cc2)SC1=S)c1nc2ccccc2s1 | 8.85 µM (inactive) | – | – | – |
| O=C(Nc1ccc(Cl)c(Cl)c1)C(=O)C(C1OC(=O)c2ccccc21)[N+](=O)[O-] (stereo not drawn) | > 100 µM (inactive) | – | – | – |
| OC(CC1CCCCN1)c1ccc2c(c1)oc1ccccc12 (stereo not drawn) | > 100 µM (inactive) | – | – | – |
| CCNC(=S)N/N=C(\C)c1cccc(C)n1 | 0.643 µM (active) | – | – | – |
| O=C(O)CSCC(=O)Nc1ccc2cccc3c2c1CC3 | > 100 µM (inactive) | – | – | – |
